# Test results from PubChem BioAssay AID2060904 (Molecular Pharmacology Branch, DTP, NCI, 2025).
# Tested on: 349418-098-R-PDC complex spheroid viability
# Experiment: Anticancer human tumor 349418-098-R-PDC patient-derived lung adenocarcinoma cell line growth inhibition [RAS]
# Settings: for IC50: curve of first compound; for viability, T/C: stronger effect = lower value
# Method in brief: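 Multi-cell-type spheroids: tumor cells plus HUVEC endothelial cells and mesenchymal stem cells. RAS-pathway inhibitors were combined with targeted agents, each dosed in half-log steps down from clinical Cmax, or from 10 microM when Cmax was unknown.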
# [1] = second compound 0.000949 µM, first compound 0.0316 µM
# [2] = second compound 0.000949 µM, first compound 0.1 µM
# [3] = second compound 0.000949 µM, first compound 0.316 µM
# [4] = second compound 0.000949 µM, first compound 1 µM
# [5] = second compound 0.000949 µM, first compound 3.16 µM
# [6] = second compound 0.000949 µM, first compound 10 µM
# [7] = second compound 0.003 µM, first compound 0.0316 µM
# [8] = second compound 0.003 µM, first compound 0.1 µM
# [9] = second compound 0.003 µM, first compound 0.316 µM
# [10] = second compound 0.003 µM, first compound 1 µM
# [11] = second compound 0.003 µM, first compound 3.16 µM
# [12] = second compound 0.003 µM, first compound 10 µM
# [13] = second compound 0.00949 µM, first compound 0.0316 µM
# [14] = second compound 0.00949 µM, first compound 0.1 µM
# [15] = second compound 0.00949 µM, first compound 0.316 µM
# [16] = second compound 0.00949 µM, first compound 1 µM
# [17] = second compound 0.00949 µM, first compound 3.16 µM
# [18] = second compound 0.00949 µM, first compound 10 µM
# [19] = second compound 0.03 µM, first compound 0.0316 µM
# [20] = second compound 0.03 µM, first compound 0.1 µM
# [21] = second compound 0.03 µM, first compound 0.316 µM
# [22] = second compound 0.03 µM, first compound 1 µM
# [23] = second compound 0.03 µM, first compound 3.16 µM
# [24] = second compound 0.03 µM, first compound 10 µM
# [25] = second compound 0.0949 µM, first compound 0.0316 µM
# [26] = second compound 0.0949 µM, first compound 0.1 µM
# [27] = second compound 0.0949 µM, first compound 0.316 µM
# [28] = second compound 0.0949 µM, first compound 1 µM
# [29] = second compound 0.0949 µM, first compound 3.16 µM
# [30] = second compound 0.0949 µM, first compound 10 µM
# [31] = second compound 0.3 µM, first compound 0.0316 µM
# [32] = second compound 0.3 µM, first compound 0.1 µM
# [33] = second compound 0.3 µM, first compound 0.316 µM
# [34] = second compound 0.3 µM, first compound 1 µM
# [35] = second compound 0.3 µM, first compound 3.16 µM
# [36] = second compound 0.3 µM, first compound 10 µM
# [37] = second compound 0.0316 µM, first compound 0.0316 µM
# [38] = second compound 0.0316 µM, first compound 0.1 µM
# [39] = second compound 0.0316 µM, first compound 0.316 µM
# [40] = second compound 0.0316 µM, first compound 1 µM
# [41] = second compound 0.0316 µM, first compound 3.16 µM
# [42] = second compound 0.0316 µM, first compound 10 µM
# [43] = second compound 0.1 µM, first compound 0.0316 µM
# [44] = second compound 0.1 µM, first compound 0.1 µM
# [45] = second compound 0.1 µM, first compound 0.316 µM
# [46] = second compound 0.1 µM, first compound 1 µM
# [47] = second compound 0.1 µM, first compound 3.16 µM
# [48] = second compound 0.1 µM, first compound 10 µM
# [49] = second compound 0.316 µM, first compound 0.0316 µM
# [50] = second compound 0.316 µM, first compound 0.1 µM
# [51] = second compound 0.316 µM, first compound 0.316 µM
# [52] = second compound 0.316 µM, first compound 1 µM
# [53] = second compound 0.316 µM, first compound 3.16 µM
# [54] = second compound 0.316 µM, first compound 10 µM
# [55] = second compound 1 µM, first compound 0.0316 µM
# [56] = second compound 1 µM, first compound 0.1 µM
# [57] = second compound 1 µM, first compound 0.316 µM
# [58] = second compound 1 µM, first compound 1 µM
# [59] = second compound 1 µM, first compound 3.16 µM
# [60] = second compound 1 µM, first compound 10 µM
# [61] = second compound 3.16 µM, first compound 0.0316 µM
# [62] = second compound 3.16 µM, first compound 0.1 µM
# [63] = second compound 3.16 µM, first compound 0.316 µM
# [64] = second compound 3.16 µM, first compound 1 µM
# [65] = second compound 3.16 µM, first compound 3.16 µM
# [66] = second compound 3.16 µM, first compound 10 µM
# [67] = second compound 10 µM, first compound 0.0316 µM
# [68] = second compound 10 µM, first compound 0.1 µM
# [69] = second compound 10 µM, first compound 0.316 µM
# [70] = second compound 10 µM, first compound 1 µM
# [71] = second compound 10 µM, first compound 3.16 µM
# [72] = second compound 10 µM, first compound 10 µM
# 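Note: spheroids exposed to compound for seven days before viability readout.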
smiles,measurement,setting,value
CCC(CC)c1cc(NC2CCC(N)C2)n2nccc2n1 (stereo not drawn) + CCn1c(-c2cccnc2C(C)OC)c2c3cc(ccc31)N1CCOC(CC(NC(=O)C(C(C)C)N(C)C(=O)C3(F)CCN(C(=O)C#CC(C)(C)N(C)C)CC3)C(=O)N3CCCC(N3)C(=O)OCC(C)(C)C2)C1,IC50,second compound 0.000949 µM,840 nM
same,IC50,second compound 0.003 µM,1320 nM
same,IC50,second compound 0.00949 µM,793 nM
same,IC50,second compound 0.03 µM,795 nM
same,IC50,second compound 0.0949 µM,1060 nM
same,IC50,second compound 0.3 µM,629 nM
same,"viability, T/C",[1],105%
same,"viability, T/C",[2],105%
same,"viability, T/C",[3],87.2%
same,"viability, T/C",[4],45.2%
same,"viability, T/C",[5],2.1%
same,"viability, T/C",[6],2.24%
same,"viability, T/C",[7],101%
same,"viability, T/C",[8],94.5%
same,"viability, T/C",[9],72.7%
same,"viability, T/C",[10],66.2%
same,"viability, T/C",[11],2.87%
same,"viability, T/C",[12],1.93%
same,"viability, T/C",[13],123%
same,"viability, T/C",[14],105%
same,"viability, T/C",[15],86%
same,"viability, T/C",[16],44.8%
same,"viability, T/C",[17],2.14%
same,"viability, T/C",[18],2.37%
same,"viability, T/C",[19],106%
same,"viability, T/C",[20],85.5%
same,"viability, T/C",[21],97.8%
same,"viability, T/C",[22],38.5%
same,"viability, T/C",[23],2.21%
same,"viability, T/C",[24],2.43%
same,"viability, T/C",[25],95.2%
same,"viability, T/C",[26],78.8%
same,"viability, T/C",[27],91.1%
same,"viability, T/C",[28],52.4%
same,"viability, T/C",[29],2.89%
same,"viability, T/C",[30],2.25%
same,"viability, T/C",[31],80%
same,"viability, T/C",[32],68.8%
same,"viability, T/C",[33],81.8%
same,"viability, T/C",[34],31.9%
same,"viability, T/C",[35],2.89%
same,"viability, T/C",[36],3.28%
C[C@@H](NC(=O)c1ncnc(N)c1Cl)c1ncc(C(=O)Nc2cc(C(F)(F)F)c(Cl)cn2)s1 + C#Cc1c(F)ccc2cc(O)cc(-c3ncc4c(N5CC6CCC(C5)N6)nc(OCC56CCCN5CC(F)C6)nc4c3F)c12,IC50,second compound 0.0316 µM,2440 nM
same,IC50,second compound 0.1 µM,2710 nM
same,IC50,second compound 0.316 µM,2210 nM
same,IC50,second compound 1 µM,2690 nM
same,IC50,second compound 3.16 µM,2940 nM
same,IC50,second compound 10 µM,398 nM
same,"viability, T/C",[37],83.8%
same,"viability, T/C",[38],116%
same,"viability, T/C",[39],89%
same,"viability, T/C",[40],67.8%
same,"viability, T/C",[41],47.2%
same,"viability, T/C",[42],35.4%
same,"viability, T/C",[43],101%
same,"viability, T/C",[44],118%
same,"viability, T/C",[45],95.9%
same,"viability, T/C",[46],73.2%
same,"viability, T/C",[47],47.4%
same,"viability, T/C",[48],36.6%
same,"viability, T/C",[49],110%
same,"viability, T/C",[50],119%
same,"viability, T/C",[51],76.4%
same,"viability, T/C",[52],62.4%
same,"viability, T/C",[53],52%
same,"viability, T/C",[54],32.8%
same,"viability, T/C",[55],90.7%
same,"viability, T/C",[56],93.8%
same,"viability, T/C",[57],107%
same,"viability, T/C",[58],76.7%
same,"viability, T/C",[59],47.6%
same,"viability, T/C",[60],34.5%
same,"viability, T/C",[61],86.6%
same,"viability, T/C",[62],92.8%
same,"viability, T/C",[63],87%
same,"viability, T/C",[64],75.2%
same,"viability, T/C",[65],48.5%
same,"viability, T/C",[66],28.4%
same,"viability, T/C",[67],76.5%
same,"viability, T/C",[68],61.5%
same,"viability, T/C",[69],57.5%
same,"viability, T/C",[70],33.2%
same,"viability, T/C",[71],30.2%
same,"viability, T/C",[72],8.17%
CCC(CC)c1cc(NC2CCC(N)C2)n2nccc2n1 (stereo not drawn) + C#Cc1c(F)ccc2cc(O)cc(-c3ncc4c(N5CC6CCC(C5)N6)nc(OCC56CCCN5CC(F)C6)nc4c3F)c12,IC50,second compound 0.0316 µM,736 nM
same,IC50,second compound 0.1 µM,810 nM
same,IC50,second compound 0.316 µM,903 nM
same,IC50,second compound 1 µM,875 nM
same,IC50,second compound 3.16 µM,714 nM
same,IC50,second compound 10 µM,< 31.6 nM
same,"viability, T/C",[37],91.3%
same,"viability, T/C",[38],106%
same,"viability, T/C",[39],76.1%
same,"viability, T/C",[40],41.9%
same,"viability, T/C",[41],3.06%
same,"viability, T/C",[42],2.85%
same,"viability, T/C",[43],84.2%
same,"viability, T/C",[44],107%
same,"viability, T/C",[45],84.5%
same,"viability, T/C",[46],42.6%
same,"viability, T/C",[47],2.89%
same,"viability, T/C",[48],2.86%
same,"viability, T/C",[49],91.3%
same,"viability, T/C",[50],112%
same,"viability, T/C",[51],106%
same,"viability, T/C",[52],44.8%
same,"viability, T/C",[53],4.03%
same,"viability, T/C",[54],2.72%
same,"viability, T/C",[55],75.8%
same,"viability, T/C",[56],85.6%
same,"viability, T/C",[57],67.2%
same,"viability, T/C",[58],48.9%
same,"viability, T/C",[59],3.08%
same,"viability, T/C",[60],3.26%
same,"viability, T/C",[61],75%
same,"viability, T/C",[62],97.5%
same,"viability, T/C",[63],83.2%
same,"viability, T/C",[64],36.1%
same,"viability, T/C",[65],3.69%
same,"viability, T/C",[66],3.11%
same,"viability, T/C",[67],52.5%
same,"viability, T/C",[68],44.7%
same,"viability, T/C",[69],42.7%
same,"viability, T/C",[70],20.4%
same,"viability, T/C",[71],1.26%
same,"viability, T/C",[72],0.7%
CC(C)NCC(C(=O)N1CCN(c2ncnc3c2C(C)CC3O)CC1)c1ccc(Cl)cc1 (stereo not drawn) + CCn1c(-c2cc(N3CCN(C)CC3)cnc2C(C)OC)c2c3cc(ccc31)-c1csc(n1)CC(NC(=O)C1CC1C)C(=O)N1CCCC(N1)C(=O)OCC(C)(C)C2,IC50,second compound 0.000949 µM,843 nM
same,IC50,second compound 0.003 µM,831 nM
same,IC50,second compound 0.00949 µM,1150 nM
same,IC50,second compound 0.03 µM,864 nM
same,IC50,second compound 0.0949 µM,1190 nM
same,IC50,second compound 0.3 µM,829 nM
same,"viability, T/C",[1],97%
same,"viability, T/C",[2],86.3%
same,"viability, T/C",[3],71.5%
same,"viability, T/C",[4],47.3%
same,"viability, T/C",[5],23.5%
same,"viability, T/C",[6],14.2%
same,"viability, T/C",[7],117%
same,"viability, T/C",[8],101%
same,"viability, T/C",[9],70.2%
same,"viability, T/C",[10],45.8%
same,"viability, T/C",[11],28.4%
same,"viability, T/C",[12],15.1%
same,"viability, T/C",[13],110%
same,"viability, T/C",[14],97.6%
same,"viability, T/C",[15],78.9%
same,"viability, T/C",[16],53%
same,"viability, T/C",[17],29.3%
same,"viability, T/C",[18],14.8%
same,"viability, T/C",[19],113%
same,"viability, T/C",[20],90.1%
same,"viability, T/C",[21],61.3%
same,"viability, T/C",[22],45.9%
same,"viability, T/C",[23],34.6%
same,"viability, T/C",[24],11.4%
same,"viability, T/C",[25],108%
same,"viability, T/C",[26],118%
same,"viability, T/C",[27],90.3%
same,"viability, T/C",[28],54.5%
same,"viability, T/C",[29],25.4%
same,"viability, T/C",[30],10.8%
same,"viability, T/C",[31],113%
same,"viability, T/C",[32],104%
same,"viability, T/C",[33],76.4%
same,"viability, T/C",[34],38.6%
same,"viability, T/C",[35],36%
same,"viability, T/C",[36],11.6%
